Laboratory results as given in patent publication US9131690B2, “Macrocyclic picolinamides as fungicides” (Dow AgroSciences LLC, priority 2012, dated 2015).
Read-outs that look alike come from different tables or passages of the source.

Experiments:
[1] = test system: Mycosphaerella graminicola; Anamorph: Septoria tritici; test: Fungicidal activity: Leaf Blotch of Wheat (SEPTTR), wheat plants variety Yuma; assay type: in vivo; details: Zymoseptoria tritici
Description: Evaluation of Fungicidal Activity: Leaf Blotch of Wheat (Mycosphaerella graminicola; Anamorph: Septoria tritici; Bayer Code […]) Wheat plants (variety Yuma) were grown from seed in a greenhouse in 50% mineral soil/50% soil-less Metro mix until the first leaf was fully emerged, with 7-10 seedlings per pot. These plants were inoculated with an aqueous spore suspension of Septoria tritici either prior to or after fungicide treatments. After inoculation the plants were kept in 100% relative humidity (one day in a dark dew chamber followed by two to three days in a lighted dew chamber) to permit spores to germinate and infect the leaf. The plants were then transferred to a greenhouse at 20° C. for disease to develop.

[2] = test system: Puccinia triticina. Synonym: Puccinia recondite f. sp. tritici; test: Fungicidal activity: Wheat Brown Rust (PUCCRT), wheat plants variety Yuma; assay type: in vivo; design: key to PUCCRT 3DC Disease Control: A: 50-100; B: More than 0-Less than 50; C: Not Tested; D: No activity noticed in this bioassay; details: for pest or weed control at 100 ppm: Puccinia triticina; for PUCCRT 3DC Disease Control: 100 ppm
Description: Evaluation of Fungicidal Activity: Wheat Brown Rust (Puccinia triticina. Synonym: Puccinia recondite f. sp. tritici; Bayer Code PUCCRT) Wheat plants (variety Yuma) were grown from seed in a greenhouse in 50% mineral soil/50% soil-less Metro mix until the first leaf was fully emerged, with 7-10 seedlings per pot. These plants were inoculated with an aqueous spore suspension of Puccinia recondite f. sp. tritici either prior to or after fungicide treatments. After inoculation the plants were kept in 100% relative humidity overnight to permit spores to germinate and infect the leaf. The plants were then transferred to a greenhouse set at 24 C for disease to develop.

[3] = 24 h, 1 Day Protectant, read-out: SEPTTR 1DP Disease Control
[4] = 72 h, 3 Day Curative, read-out: SEPTTR 3DC Disease Control
[5] = 24 h, 1 Day Protectant, read-out: PUCCRT 1DP Disease Control
[6] = 72 h, 3 Day Curative, read-out: PUCCRT 3DC Disease Control

| SMILES | pest or weed control at 100 ppm [1, 3] | pest or weed control at 100 ppm [1, 4] | pest or weed control at 100 ppm [2, 5] | pest or weed control at 100 ppm [2, 6] | melting point | PUCCRT 3DC Disease Control ([2]; 3 Day Curative) |
| --- | --- | --- | --- | --- | --- | --- |
| COc1ccnc(C(=O)N[C@H]2COC(=O)[C@H](CCOC(=O)c3ccc(C(F)(F)F)cc3)[C@@H](OC(=O)C(C)C)[C@H](C)OC2=O)c1OC(C)=O [Compound 68] | 0 to 50% | 0 to 50% | 0 to 50% | 0 to 50% | 199 to 200 °C |  |
| COc1ccnc(C(=O)N[C@H]2COC(=O)[C@H](CCOC=O)[C@@H](OC(=O)C(C)C)[C@H](C)OC2=O)c1O [Compound 51, (3S,6S,7R,8R)-8-(2-(formyloxy)ethyl)-3-(3-hydroxy-4-methoxypicolinamido)-6-methyl-4,9-dioxo-1,5-dioxonan-7-yl isobutyrate] | 0 to 50% | 0 to 50% | 50 to 100% |  | 103 to 105 °C | D |
| COc1ccnc(C(=O)N[C@H]2COC(=O)[C@H](Cc3cccc(C(F)(F)F)c3)[C@@H](OC(=O)C(C)C)[C@H](C)OC2=O)c1O [Compound 16] | 50 to 100% | 0 to 50% | 50 to 100% | 0 to 50% | 188 to 190 °C |  |
| COc1ccnc(C(=O)N[C@H]2COC(=O)[C@H](CCOC(=O)C(C)C)[C@@H](OC(=O)C(C)C)[C@H](C)OC2=O)c1O [Compound 36] | 50 to 100% | 0 to 50% | 50 to 100% |  |  | D |
| CCCC/C=C/C[C@H]1C(=O)OC[C@H](NC(=O)c2nccc(OC)c2O)C(=O)O[C@@H](C)[C@@H]1OC(=O)C(C)C [Compound 18] | 50 to 100% | 0 to 50% | 50 to 100% |  | 146 to 148 °C | D |
| COc1ccnc(C(=O)N[C@H]2COC(=O)[C@H](Cc3cncnc3)[C@@H](OC(=O)C(C)C)[C@H](C)OC2=O)c1O [Compound 14] | 0 to 50% | 0 to 50% | 50 to 100% | 50 to 100% | 169 to 175 °C |  |
| COc1ccnc(C(=O)N[C@H]2COC(=O)[C@H](CCOC(=O)C3CC3)[C@@H](OC(=O)C(C)C)[C@H](C)OC2=O)c1OCOC(=O)C(C)C [Compound 26] | 0 to 50% | 0 to 50% | 50 to 100% | 50 to 100% | 68 to 69 °C |  |
| C=CC[C@H]1C(=O)OC[C@H](NC(=O)c2nccc(OC)c2O)C(=O)O[C@@H](C)[C@@H]1OC(=O)C(C)C [Compound 17] | 50 to 100% | 0 to 50% | 50 to 100% | 50 to 100% | 161 to 165 °C |  |
| COc1ccnc(C(=O)N[C@H]2COC(=O)[C@H](CCOC(=O)c3cc(OC)c(OC)c(OC)c3)[C@@H](OC(=O)C(C)C)[C@H](C)OC2=O)c1O [Compound 41] | 0 to 50% | 0 to 50% | 50 to 100% |  |  | D |
| COc1ccnc(C(=O)N[C@H]2COC(=O)[C@H](CCc3ccc(F)cc3)[C@@H](OC(=O)C(C)C)[C@H](C)OC2=O)c1O [Compound 58] | 50 to 100% | 0 to 50% | 50 to 100% | 50 to 100% | 142 to 144 °C |  |
| COc1ccnc(C(=O)N[C@H]2COC(=O)[C@H](Cc3ccc(Cl)nc3)[C@@H](OC(=O)C(C)C)[C@H](C)OC2=O)c1O [Compound 7] | 0 to 50% | 0 to 50% | 50 to 100% | 50 to 100% | 148 to 152 °C |  |
| COc1ccnc(C(=O)N[C@H]2COC(=O)[C@H](Cc3ccc(F)cc3)[C@@H](OC(=O)C(C)C)[C@H](C)OC2=O)c1O [Compound 1, (3S,6S,7R,8R)-8-(4-fluorobenzyl)-3-(3-hydroxy-4-methoxypicolinamido)-6-methyl-4,9-dioxo-1,5-dioxonan-7-yl isobutyrate] | 50 to 100% | 0 to 50% | 50 to 100% | 0 to 50% | 208 to 210 °C |  |
| COc1ccnc(C(=O)N[C@H]2COC(=O)[C@H](Cc3cccc(-c4ccccc4)c3)[C@@H](OC(=O)C(C)C)[C@H](C)OC2=O)c1O [Compound 13] | 50 to 100% | 0 to 50% | 50 to 100% | 0 to 50% | 182 to 186 °C |  |
| COc1ccc(C[C@H]2C(=O)OC[C@H](NC(=O)c3nccc(OC)c3O)C(=O)O[C@@H](C)[C@@H]2OC(=O)C(C)C)cc1 [Compound 8] | 50 to 100% | 0 to 50% | 50 to 100% | 50 to 100% |  |  |
| COc1ccnc(C(=O)N[C@H]2COC(=O)[C@H](CCOC(=O)C(C)(C)C)[C@@H](OC(=O)C(C)C)[C@H](C)OC2=O)c1O [Compound 37] | 50 to 100% | 0 to 50% | 50 to 100% | 0 to 50% |  |  |
| COc1ccnc(C(=O)N[C@H]2COC(=O)[C@H](CC(=O)OC(C)(C)C)[C@@H](OC(=O)C(C)C)[C@H](C)OC2=O)c1OCOC(=O)C(C)C [Compound 30] | 50 to 100% | 50 to 100% | 50 to 100% | 50 to 100% |  |  |
| COCC[C@H]1C(=O)OC[C@H](NC(=O)c2nccc(OC)c2OCOC(=O)C(C)C)C(=O)O[C@@H](C)[C@@H]1OC(=O)C(C)C [Compound 28] | 50 to 100% | 50 to 100% | 50 to 100% | 50 to 100% |  |  |
| CCCCCCC[C@H]1C(=O)OC[C@H](NC(=O)c2nccc(OC)c2OCOC(=O)C(C)C)C(=O)O[C@@H](C)[C@@H]1OC(=O)C(C)C [Compound 33] | 50 to 100% | 50 to 100% | 50 to 100% | 50 to 100% |  |  |
| COc1ccnc(C(=O)N[C@H]2COC(=O)[C@H](Cc3ccc(F)cc3)[C@@H](OC(=O)C(C)C)[C@H](C)OC2=O)c1OCOC(=O)C(C)C [Compound 20] | 50 to 100% | 50 to 100% | 50 to 100% | 50 to 100% |  |  |
| COc1ccnc(C(=O)N[C@H]2COC(=O)[C@H](Cc3ccc(F)cc3F)[C@@H](OC(=O)C(C)C)[C@H](C)OC2=O)c1OCOC(=O)C(C)C [Compound 21] | 50 to 100% | 50 to 100% | 50 to 100% | 50 to 100% |  |  |
| CCC[C@H]1C(=O)OC[C@H](NC(=O)c2nccc(OC)c2OCOC(=O)C(C)C)C(=O)O[C@@H](C)[C@@H]1OC(=O)C(C)C [Compound 34] | 50 to 100% | 50 to 100% | 50 to 100% | 50 to 100% |  |  |
| COc1ccnc(C(=O)N[C@H]2COC(=O)[C@H](CCOCc3ccccc3)[C@@H](OC(=O)C(C)C)[C@H](C)OC2=O)c1OCOC(=O)C(C)C [Compound 29] | 50 to 100% | 0 to 50% | 50 to 100% | 50 to 100% |  |  |
| COc1ccnc(C(=O)N[C@H]2COC(=O)[C@H](CCc3ccccc3)[C@@H](OC(=O)C(C)C)[C@H](C)OC2=O)c1OCOC(=O)C(C)C [Compound 32] | 50 to 100% | 50 to 100% | 50 to 100% | 50 to 100% |  |  |
| COc1ccnc(C(=O)N[C@H]2COC(=O)[C@H](CCc3cccnc3)[C@@H](OC(=O)C(C)C)[C@H](C)OC2=O)c1OCOC(=O)C(C)C [Compound 31] | 0 to 50% | 0 to 50% | 50 to 100% | 0 to 50% |  |  |
| COCC[C@H]1C(=O)OC[C@H](NC(=O)c2nccc(OC)c2O)C(=O)O[C@@H](C)[C@@H]1OC(=O)C(C)C [Compound 44, (3S,6S,7R,8R)-3-(3-hydroxy-4-methoxypicolinamido)-8-(2-methoxyethyl)-6-methyl-4,9-dioxo-1,5-dioxonan-7-yl isobutyrate] | 50 to 100% | 50 to 100% | 50 to 100% | 50 to 100% |  |  |
| COc1ccnc(C(=O)N[C@H]2COC(=O)[C@H](CCC3CCCCC3)[C@@H](OC(=O)C(C)C)[C@H](C)OC2=O)c1O [Compound 62] | 50 to 100% | 0 to 50% | 50 to 100% | 0 to 50% |  |  |
